Key:
[1] = molecular target: T1, PDK1 kinase (Homo sapiens, UniProt O15530); assay: PDK1 Kinase Alpha Screen Assay; assay type: biochemical; conditions: PDK1 Kinase Alpha Screen Assay; read-out: PDK1 IC50
T1 sequence (O15530 1-556): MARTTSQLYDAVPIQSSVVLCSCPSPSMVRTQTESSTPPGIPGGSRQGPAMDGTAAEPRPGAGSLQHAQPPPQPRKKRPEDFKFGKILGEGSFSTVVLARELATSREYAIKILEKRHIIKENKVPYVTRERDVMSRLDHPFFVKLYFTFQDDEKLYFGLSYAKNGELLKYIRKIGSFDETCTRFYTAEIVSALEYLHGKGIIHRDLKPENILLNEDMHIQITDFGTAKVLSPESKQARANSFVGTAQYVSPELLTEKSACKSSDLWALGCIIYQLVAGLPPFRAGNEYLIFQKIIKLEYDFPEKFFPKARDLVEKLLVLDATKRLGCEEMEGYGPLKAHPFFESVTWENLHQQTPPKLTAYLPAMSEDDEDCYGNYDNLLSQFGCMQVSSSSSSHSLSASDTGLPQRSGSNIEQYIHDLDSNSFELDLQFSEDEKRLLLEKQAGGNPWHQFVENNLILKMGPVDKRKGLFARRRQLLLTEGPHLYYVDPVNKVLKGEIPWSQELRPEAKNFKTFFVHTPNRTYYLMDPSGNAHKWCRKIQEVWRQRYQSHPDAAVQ
Outline: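 PDK1, 10 uM ATP, 50 nM biotin-PDK1-4 peptide; 50 mM Tris pH 7.5, 10 mM MgCl2, 0.1% BSA, 0.01% Tween-20, 2 mM DTT, 2.5% DMSO; 3-18 h. EDTA stop; AlphaScreen, phospho-Ser/Thr antibody, overnight RT.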

[2] = tested on: A2780 cells; assay: Cell Proliferation Assay (Cell Titer Glo), A2780; assay type: cell-based; conditions: Homo sapiens; cell proliferation, A2780 cells; read-out: CPEC50 A2780
Outline: (§1)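 Following a 3-day compound exposure (37° C., 5% CO2) of A2780 or PC3MM cells plated at 1000 per well, viability was measured by Cell Titer Glo luminescence in fresh medium, read 10 min after reagent addition.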

[3] = tested on: PC-3 cells; assay: Cell Proliferation Assay (Cell Titer Glo), PC-3 cell line; assay type: cell-based; conditions: Homo sapiens, PC-3, cell proliferation, PC3 cells; read-out: CPEC50 PC3
Outline: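 Cell Titer Glo luminescence, read after fresh medium replaced the dosing medium, gave viability of PC-3 cells plated at 1000 cells/well. Compounds, 1:3 serially diluted in DMSO at 500× and then in medium, were added after 3-5 h adhesion and incubated 3 days at 37° C.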

[4] = tested on: PC3MM cells; assay: Cell Proliferation Assay (Cell Titer Glo), PC3MM; assay type: cell-based; conditions: cell proliferation, PC3MM cells; read-out: CPEC50 PC3MM
Outline: as §1

| SMILES | IC50 [1] | EC50 [2] | EC50 [3] | EC50 [4] |
| --- | --- | --- | --- | --- |
| CC(C)N1CCC(Oc2cccc3cnc(Nc4ccc(S(N)(=O)=O)cc4)nc23)CC1 [Compound 725, 4-(8-(1-isopropylpiperidin-4-yloxy)quinazolin-2-ylamino)benzenesulfonamide] | < 5 µM | < 5 µM | < 5 µM | < 5 µM |
| NS(=O)(=O)c1ccc(Nc2ncc3cccc(O[C@@H]4CN5CCC4CC5)c3n2)cc1 [Compound 744, (S)-4-(8-(quinuclidin-3-yloxy)quinazolin-2-ylamino)benzenesulfonamide] | < 5 µM | < 5 µM | < 5 µM | < 5 µM |
| CN1C2CCC1CC(Oc1cccc3cnc(Nc4ccc(S(N)(=O)=O)cc4)nc13)C2 (stereo not shown) [Compound 749, 4-(8-(8-methyl-8-azabicyclo[3.2.1]octan-3-yloxy)quinazolin-2-ylamino)benzenesulfonamide] | < 5 µM | < 5 µM | < 5 µM | < 5 µM |
| NS(=O)(=O)c1ccc(Nc2ncc3ccc(OC4CCNCC4)cc3n2)cc1 [Compound 750, 4-(7-(piperidin-4-yloxy)quinazolin-2-ylamino)benzenesulfonamide] | < 5 µM | < 5 µM | < 5 µM | < 5 µM |
| CN1CCC(Oc2ccc3cnc(Nc4ccc(S(N)(=O)=O)cc4)nc3c2)CC1 [Compound 763, 4-(7-(1-methylpiperidin-4-yloxy)quinazolin-2-ylamino)benzenesulfonamide] | < 5 µM | < 5 µM | < 5 µM | < 5 µM |
| O=S(=O)(c1ccc(Nc2ncc3cccc(OC4CCNCC4)c3n2)cc1)N1CCOCC1 [Compound 771, N-(4-(morpholinosulfonyl)phenyl)-8-(piperidin-4-yloxy)quinazolin-2-amine] | < 5 µM | < 5 µM | < 5 µM | < 5 µM |
| CC(C)N1CCC(Oc2cccc3cnc(Nc4ccc(S(=O)(=O)N5CCOCC5)cc4)nc23)CC1 [Compound 772, 8-(1-isopropylpiperidin-4-yloxy)-N-(4-(morpholinosulfonyl)-phenyl)quinazolin-2-amine] | < 5 µM | < 5 µM | < 5 µM | < 5 µM |

Other lines, results leading:

| IC50 [1] | EC50 [2] | EC50 [3] | EC50 [4] | SMILES |
| --- | --- | --- | --- | --- |
| < 5 µM | < 5 µM | < 5 µM | < 5 µM | CC(C)NS(=O)(=O)c1ccc(Nc2ncc3cccc(OC4CCNCC4)c3n2)cc1 [Compound 779, N-isopropyl-4-(8-(piperidin-4-yloxy)quinazolin-2-ylamino)benzenesulfonamide] |
| < 5 µM | < 5 µM | < 5 µM | < 5 µM | COCCNS(=O)(=O)c1ccc(Nc2ncc3cccc(OC4CCNCC4)c3n2)cc1 [Compound 780, N-(2-methoxyethyl)-4-(8-(piperidin-4-yloxy)quinazolin-2-ylamino)benzenesulfonamide] |
| < 5 µM | < 5 µM | < 5 µM | < 5 µM | O=S(=O)(NC1CC1)c1ccc(Nc2ncc3cccc(OC4CCNCC4)c3n2)cc1 [Compound 781, N-cyclopropyl-4-(8-(piperidin-4-yloxy)quinazolin-2-ylamino)benzenesulfonamide] |
| < 5 µM | < 5 µM | < 5 µM | < 5 µM | CC(C)N1CCC(Oc2ccc3cnc(Nc4ccc(S(N)(=O)=O)cc4)nc3c2)CC1 [Compound 794, 4-(7-(1-isopropylpiperidin-4-yloxy)quinazolin-2-ylamino)benzenesulfonamide] |
| < 5 µM | < 5 µM | < 5 µM | < 5 µM | CC(C)N1CCC(c2c(O)ccc3cnc(Nc4ccc(S(N)(=O)=O)cc4)nc23)CC1 [Compound 795, 4-(7-hydroxy-8-(1-isopropylpiperidin-4-yl)quinazolin-2-ylamino)benzenesulfonamide] |
| < 5 µM | < 5 µM | < 5 µM | < 5 µM | CC(C)NC(=O)c1ccc(Nc2ncc3cccc(OC4CCN(C(C)C)CC4)c3n2)cc1 [Compound 797, N-isopropyl-4-(8-(1-isopropylpiperidin-4-yloxy)quinazolin-2-ylamino)benzamide] |
